Laboratory results reported in patent US9790496B2, “Microrna compounds and methods for modulating MIR-21 activity” (Regulus Therapeutics, Inc., priority 2011, dated 2017).
Where “and” joins values, the source holds several entries; their conditions need not be identical. Equal entries are not always repeated. Strand notation (5' to 3'): a small letter for the sugar, then the base; units joined by * are phosphorothioate-linked, units joined directly phosphodiester-linked; [ ] holds rarer units or linkages, { } end groups; capitals alone tell only the bases. e = 2'-O-(2-methoxyethyl) (MOE); l = locked nucleic acid (LNA); k = constrained ethyl (cEt); [5mC] = 5-methylcytosine; d = 2'-deoxy (DNA)

How the values were obtained:
[1] = system: collagen 1A1 and collagen 3A1 expression in kidney, unilateral ureteral obstruction (UUO) model; test: UUO model of kidney fibrosis: kidney collagen 1A1 and collagen 3A1 expression by real-time PCR; format: in vivo, mice; conditions: for Collagen 1A1 (Normalized Expression), individual animal / Collagen 3A1 (Normalized Expression), individual animal: UUO, 20 mg/kg at days -3, -1, +5 (prophylactic), kidney at day 11, real-time PCR normalized to GAPDH then sham, 20 mg/kg; for reduction in collagen expression (in words): meta-analysis of repeated UUO studies, 20 mg/kg at days -3, -1, +5
Description: Unilateral ureteral obstruction (UUO) is a well-established experimental model of renal injury leading to interstitial fibrosis, and thus is used as an experimental model that is reflective of human kidney disease. UUO is induced by surgically ligating a single ureter. As fibrosis is characterized by an increase in collagen, the presence and extent of kidney fibrosis may be determined by measuring collagen content. Both collagen 1A1 (Col 1A1) and collagen 3A1 (Col 3A1) are measured to assess collagen content. Kidney fibrosis may be visualized by staining tissue samples with picro-sirius red to detect increases in collagen content. Kidney fibrosis may also be observed by measuring the amount of hydroxyproline, which is a major component of collagen, in a sample.
The cEt-containing anti-miR-21 compounds found to be active in the luciferase assay were tested in the UUO model of kidney fibrosis. 25919 comprising 2′-MOE and 2′-fluoro modifications is known to inhibit miR-21 activity in vivo and was included as a positive control. Groups of 8 animals each were treated as follows: UUO only, UUO with PBS, or UUO with anti-miR-21 compound. Relative to the day of the UUO procedure, PBS or anti-miR-21 compound was administered at days −3, −1, and +5. Anti-miR-21 compounds were administered at a dose of 20 mg/kg. As the anti-miR compounds were administered prior to the UUO procedure, this dosing regimen is considered a prophylactic treatment. At day 11, animals were sacrificed and kidney was isolated for measurement of collagen expression. Collagen expression was measured by real-time PCR and normalized first to GAPDH and then to the sham control animals. […]

[2] = system: miR-21; test: miR-21 luciferase sensor assay in Hela cells; format: cell-based; conditions: for luciferase value normalized to beta-galactosidase activity / inhibition of miR-21 in the luciferase assay (in words): Hela cells
Description: The compounds were assessed for miR-21 inhibitory activity in a luciferase assay. A microRNA luciferase sensor construct was engineered using pGL3-MCS2 (Promega). The construct was introduced into Hela cells to test the ability of anti-miR compounds to inhibit activity of miR-21. In this assay, miR-21 present in the Hela cells binds to its cognate site(s) in the luciferase sensor construct, and suppresses luciferase expression. When the appropriate anti-miR is introduced into the cells, it binds to miR-21 and relieves suppression of luciferase expression. Thus, in this assay anti-miRs that are effective inhibitors of miR-21 expression will cause an increase in luciferase expression.
Day 1: Hela cells (ATCC), stably transfected with a luciferase construct engineered to contain a sequence complementary of miR-21, were seeded in T-170 flasks (BD Falcon) at 3.5*10^6 cells/flask. Hela cells were grown in Dulbecco's Modified Eagle Medium with High Glucose (Invitrogen).
Day 2: Each flask of Hela cells was transfected with 0.5 ug of a phRL sensor plasmid (Promega) expressing Renilla to be used in normalization. Hela cells were transfected using 20 ul Lipofectamine 2000/flask (Invitrogen). After 4 hours of transfection, cells were washed with PBS and trypsinized. Hela cells were plated at 40 k/well in 24 well plates (BD Falcon) and left overnight.
Day 3: Hela cells were transfected with anti-miRs using Lipofectin (Invitrogen) at 2.5 ul Lipofectin/100 nM ASO/ml Opti-MEM I Reduced Serum Medium (Invitrogen) for 4 hours. After ASO transfection, Hela cells were refed with Dulbecco's Modified Eagle Medium with High Glucose (Invitrogen).
Day 4: Hela cells are passively lysed and luciferase activity measured using the Dual-Luciferase Reporter Assay System (Promega).
The luciferase assay was performed to test the ability of anti-miRs with the nucleoside patterns described herein to inhibit the activity of miR-21. Results were compared to a ‘mock’ treatment, in which cells received no anti-miR treatment. The experiment was repeated and results of two experimental replicates are shown in the following Table B, as the luciferase value normalized to beta-galactosidase activity.
The luciferase assay was performed as described herein to test the ability of anti-miRs in Table F to inhibit the activity of miR-21. Results were compared to a ‘mock’ treatment, in which cells received no anti-miR treatment. The experiment was repeated and results of two experimental replicates are shown in the following Table D, as fold change in luciferase value relative to the mock treatment.

[3] = 4 nM oligonucleotide, mock transfection 50
[4] = 20 nM oligonucleotide, mock transfection 47
[5] = .16 nM oligonucleotide, mock transfection 45
[6] = .8 nM oligonucleotide, mock transfection 33
[7] = concentration of anti-miR compound 0.2 (unit not given)
[8] = concentration of anti-miR compound 0.6 (unit not given)
[9] = concentration of anti-miR compound 1.9 (unit not given)
[10] = concentration of anti-miR compound 5.6 (unit not given)
[11] = concentration of anti-miR compound 16.7 (unit not given)
[12] = concentration of anti-miR compound 50.0 (unit not given)
[13] = 100 nM oligonucleotide, mock transfection 40
[14] = 500 nM oligonucleotide, mock transfection 39

Compound | luciferase value normalized to beta-galactosidase activity [2, 3] | luciferase value normalized to beta-galactosidase activity [2, 4] | luciferase value normalized to beta-galactosidase activity [2, 5] | luciferase value normalized to beta-galactosidase activity [2, 6] | inhibition of miR-21 in the luciferase assay (in words) [2] | fold change in luciferase value relative to the mock treatment [2, 7] | fold change in luciferase value relative to the mock treatment [2, 8] | fold change in luciferase value relative to the mock treatment [2, 9] | fold change in luciferase value relative to the mock treatment [2, 10] | fold change in luciferase value relative to the mock treatment [2, 11] | fold change in luciferase value relative to the mock treatment [2, 12] | luciferase value normalized to beta-galactosidase activity [2, 13] | luciferase value normalized to beta-galactosidase activity [2, 14] | further results
CCCCC1=NC2(CCCC2)C(=O)N1Cc1ccc(-c2ccccc2-c2nnn[nH]2)cc1 [irbesartan, reference compound] |  |  |  |  |  |  |  |  |  |  |  |  |  | reduction in Col3a1 expression (in words) ([1]; UUO comparison with irbesartan, 25070 s.c. 20 mg/kg days -5, -2, +3, irbesartan perorally daily days 0-7, day 10): statistically significant reductions; reduction in Col1A1 expression relative to saline-treated animals (in words) ([1]; UUO comparison with irbesartan, 25070 s.c. 20 mg/kg days -5, -2, +3, irbesartan perorally daily days 0-7, day 10, p<0.05 one-way ANOVA): did not yield a statistically significant reduction
AECSAETECSAEGETECSTEGEAEUSAEAEGECSTEAE (ACATCAGTCTGATAAGCTA; S-cEt/2'-MOE, phosphorothioate, chemistry not fully specified) [Compound 25072] | 76 | 86 | 40 | 49 | demonstrated inhibition of miR-21 in a dose-dependent manner |  |  |  |  |  |  |  |  | Collagen 1A1 (Normalized Expression), individual animal [1]: 96.2 and 85.7 and 127.4 and 100.0 and 159.2 and 120.5 and 108.0; Collagen 3A1 (Normalized Expression), individual animal [1]: 69.4 and 54.5 and 58.8 and 69.2 and 93.8 and 65.8 and 46.9; reduction in collagen expression (in words) [1]: did not consistently demonstrate a reduction in collagen expression
AE^MeCLAETE^MeCLAEGETE^MeCLTEGEAE^MeTLAEAEGE^MeCLTEAE (antisense eA*l[5mC]*eA*eT*l[5mC]*eA*eG*eT*l[5mC]*eT*eG*eA*lT*eA*eA*eG*l[5mC]*eT*eA) [Compound 25117, LNA variant: each non-bicyclic nucleoside is 2'-MOE, each cytosine 5-methyl cytosine] |  |  |  |  |  | 1.05 | 1.15 | 1.14 | 3.64 | 7.36 | 2.91 |  |  | 
AE^MeCSAETE^MeCSAEGETE^MeCSTEGEAE^MeTSAEAEGE^MeCSTEAE (antisense eA*k[5mC]*eA*eT*k[5mC]*eA*eG*eT*k[5mC]*eT*eG*eA*kT*eA*eA*eG*k[5mC]*eT*eA; further chemistry not given here) [Compound 25116, 25070 variant: each non-bicyclic nucleoside is 2'-MOE, each cytosine 5-methyl cytosine] |  |  |  |  |  | 1.06 | 0.98 | 1.06 | 2.47 | 5.64 | 1.98 |  |  | 
AE^MeCSAT^MeCSAGT^MeCSTGATSAAG^MeCSTAE (antisense ACATCAGTCTGATAAGCTA; modified nucleosides coded in name, code key not given here) [Compound 25922, 25070 variant: each cytosine is a 5-methyl cytosine] |  |  |  |  | demonstrated inhibition of miR-21 in a dose-dependent manner | 1.02 | 1.10 | 1.34 | 8.81 | 11.60 | 11.46 |  |  | 
AE^MeCSAT^MeCSAGT^MeCSTGATSAAG^MeCSTAS (antisense eA*k[5mC]*dA*dT*k[5mC]*dA*dG*dT*k[5mC]*dT*dG*dA*kT*dA*dA*dG*k[5mC]*dT*kA) [Compound 25924, 25070 variant: 3'-terminal cEt nucleoside and each cytosine is a 5-methyl cytosine] |  |  |  |  | demonstrated inhibition of miR-21 in a dose-dependent manner | 1.10 | 1.25 | 1.37 | 7.80 | 13.01 | 8.99 |  |  | 
AeTe^MeCeASGSTe^MeCeTeGSASTeAeASGS^MeCeTeAe [Compound 25077] | 45 | 33 | 34 | 33 |  |  |  |  |  |  |  | 42 | 40 | 
AeTe^MeCeAeGeTe^MeCeTeGSAsTeASASGe^MeCeUSAS [Compound 25731] | 32 | 39 | 34 | 45 |  |  |  |  |  |  |  | 38 | 59 | 
Ae^MeCAST^MeCAGST^MeCTGASTASAGS^MeCTAe (ACATCAGTCTGATAAGCTA; all C 5-methyl, all phosphorothioate, sugars by position not given here; further chemistry not fully specified) [Compound 25071] | 50 | 63 | 48 | 36 |  |  |  |  |  |  |  | 53 | 42 | 
TE^MeCAACSATCSAGTCSTGAUSAAGCSTAE (TCAACATCAGTCTGATAAGCTA; listed as DNA, chemistry not fully specified) [Compound 25082] |  |  | 70 | 89 | demonstrated inhibition of miR-21 in a dose-dependent manner |  |  |  |  |  |  |  |  | Collagen 1A1 (Normalized Expression), individual animal [1]: 122.2 and 188.3 and 102.5 and 67.6 and 40.6 and 44.1 and 73.8 and 94.7; Collagen 3A1 (Normalized Expression), individual animal [1]: 62.9 and 78.9 and 82.2 and 43.8 and 32.6 and 34.3 and 75.8 and 62.5; reduction in collagen expression (in words) [1]: did not consistently demonstrate a reduction in collagen expression
Te^MeCASA^MeCAST^MeCAGST^MeCTGASTAAGS^MeCTAe (antisense TCAACATCAGTCTGATAAGCTA; all C 5-methyl, all phosphorothioate, sugars by position not given here; further chemistry not fully specified) [Compound 25067] | 43 | 41 | 38 | 23 |  |  |  |  |  |  |  | 30 | 42 | 
